Drawing on publication PMC8623179, “Design and Microwave Synthesis of New (5Z) 5-Arylidene-2-thioxo-1,3-thiazolinidin-4-one and (5Z) 2-Amino-5-arylidene-1,3-thiazol-4(5H)-one as New Inhibitors of Protein Kinase DYRK1A” (Pharmaceuticals, 2021), this text covers IC50 and melting point for 25 compounds.

Where two headings read alike, the source gives them in different places. Some results are limits rather than exact numbers.

Series [1] deals with DYRK1A. Conditions: reported, cited from earlier work.
The target of another series is T1, CDK5/p25 (Homo sapiens, UniProt Q00535).
T1 construct: made in house
T1 sequence (Q00535 whole entry): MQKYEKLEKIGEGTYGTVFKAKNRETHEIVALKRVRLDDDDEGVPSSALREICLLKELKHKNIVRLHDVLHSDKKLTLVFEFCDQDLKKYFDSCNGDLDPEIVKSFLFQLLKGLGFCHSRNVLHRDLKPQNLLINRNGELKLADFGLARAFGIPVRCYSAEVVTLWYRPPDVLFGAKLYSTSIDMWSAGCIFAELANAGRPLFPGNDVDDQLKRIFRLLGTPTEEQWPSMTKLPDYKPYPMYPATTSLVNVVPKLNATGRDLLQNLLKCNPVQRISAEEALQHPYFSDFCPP
T1 sequence (Q15078 99-307 partner limits assumed): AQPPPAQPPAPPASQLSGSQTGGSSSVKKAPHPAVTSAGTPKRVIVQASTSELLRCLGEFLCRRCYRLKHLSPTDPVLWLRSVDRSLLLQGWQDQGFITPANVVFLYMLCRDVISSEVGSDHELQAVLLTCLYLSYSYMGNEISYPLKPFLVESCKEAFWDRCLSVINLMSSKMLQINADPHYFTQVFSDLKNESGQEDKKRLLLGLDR
As to the kind of experiment: CDK5/p25 kinase assay. It counts as biochemical. The conditions noted are these: 15 μM ATP. On the procedure: (§1) The twenty-two (5Z) 5-arylidene-2-thioxo-1,3-thiazolidin-4-ones 3a–v and the twenty-four (5Z) 2-amino-5-arylidene-1,3-thiazolidin-4(5H)-ones 5a–x were evaluated against four different and representative in vitro kinase assays DYRK1A (dual specificity tyrosine phosphorylation regulated kinase), CK1 δ/e (caseine kinase 1), CDK5/p25 (cyclin dependant kinase), and GSK3 α/β (glycogen synthase kinase 3) to evaluate their inhibition potency. […] All the compounds were initially tested at a 10 μM concentration.
(§2) After 30-min incubation at 30 °C, the reaction was stopped by harvesting, using a FilterMate harvester (Packard), onto P81 phospho-cellulose papers (GE Healthcare, Chicago, IL, USA) which were washed in 1% phosphoric acid. Scintillation fluid was added and the radioactivity measured in a Packard counter. Blank values were subtracted and activities calculated as pmoles of phosphate incorporated for the 30-min incubation. The activities were expressed in % of the maximal activity, i.e., in the absence of inhibitors. Controls were performed with appropriate dilutions of DMSO.
CDK5/p25 (human, recombinant) was prepared as previously described. […] ATP (3000 Ci/mmol; 10 mCi/mL) in a final volume of 30 μL. After 30-min incubation at 30 °C, 25 μL aliquots of supernatant were spotted onto 2.5 × 3 cm pieces of Whatman P81 phospho-cellulose paper, and, 20 s later, the filters were washed five times (for at least 5 min each time) in a solution of 10 mL phosphoric acid/litter of water. The wet filters were counted in the presence of 1 mL ACS (Amersham, UK) scintillation fluid.

For a further series, the target named is GSK-3α/β. As to the kind of experiment: GSK-3α/β kinase assay. It is filed as biochemical, porcine. The conditions noted are these: 15 μM ATP, read-out: IC50 GSK3α/β. On the procedure: as §1, §2
GSK-3α/β (porcine brain, native) was assayed, as described for CDK5/p25 but in Buffer A and using a GSK-3 specific substrate (GS-1: […]pEDEEE) (pS stands for phosphorylated serine). GS-1 was synthesized by Millegen (Labege, France).

The target in another series is Casein kinase 1 (CK1δ/ε). Put plainly: CK1δ/ε kinase assay. Conditions: 15 μM ATP, read-out: IC50 CK1. It counts as biochemical, porcine. On the procedure: as §1, §2
Casein kinase 1 (CK1δ/ε) (porcine brain, native) was assayed with 0.67 µg of CKS peptide ([…]pSAYSITA), a CK1 specific substrate obtained from Millegen (Labege, France).

Series [2] concerns the target T2, DYRK1A (Rattus norvegicus, UniProt Q63470).
T2 construct: GST; made in house; host or cells: Escherichia coli
As to the kind of experiment: DYRK1A kinase assay. It counts as biochemical. Conditions: 15 μM ATP. On the procedure: as §1
After 30-min incubation at 30 °C, the reaction was stopped by harvesting, using a FilterMate harvester (Packard), onto P81 phospho-cellulose papers (GE Healthcare, Chicago, IL, USA) which were washed in 1% phosphoric acid. Scintillation fluid was added and the radioactivity measured in a Packard counter. Blank values were subtracted and activities calculated as pmoles of phosphate incorporated for the 30-min incubation. The activities were expressed in % of the maximal activity, i.e., in the absence of inhibitors. Controls were performed with appropriate dilutions of DMSO. […]

By melting point is commonly meant the temperature, or range, at which the solid turns liquid.

Regarding 2-(pyridin-3-yl)-1H-indol-6-ol, in the series on DYRK1A [1], the IC50 is 60 nM.

`O=C1NC(=S)S/C1=C\c1cc(Br)c2c(c1)OCO2` [Compound 3i, (5Z)-5-[(7-Bromo-1,3-benzodioxol-5-yl)methylene]-2-thioxo-1,3-thiazolidin-4-one] yielded a melting point of more than 260 °C. The IC50 at CDK5/p25 (Table 4) is more than 10 µM. For the same compound, at GSK-3α/β (Table 4), the IC50 is more than 10 µM. Further, at Casein kinase 1 (CK1δ/ε) (Table 4), the IC50 is more than 10 µM. Besides, the IC50 against DYRK1A [2] (Table 4) was 700 nM.

The compound `O=C1NC(=S)S/C1=C\c1ccc(O)c(O)c1` [Compound 3j, (5Z)-5-(3,4-Dihydroxybenzylidene)-2-thioxo-1,3-thiazolidin-4-one] showed a melting point of 210 to 212 °C. The compound further yielded an IC50 at CDK5/p25 (Table 4) of more than 10 µM. For the same compound, the IC50 at GSK-3α/β (Table 4) was more than 10 µM. Further, the IC50 on Casein kinase 1 (CK1δ/ε) (Table 4) was more than 10 µM. Besides, the IC50 against DYRK1A [2] (Table 4) was more than 10000 nM.

Regarding `O=C1NC(=S)S/C1=C\c1cc(O)cc(O)c1` [Compound 3k, (5Z)-5-(3,5-Dihydroxybenzylidene)-2-thioxo-1,3-thiazolidin-4-one], the melting point was in the range of 230 to 232 °C. The same compound had an IC50 on CDK5/p25 (Table 4) of more than 10 µM. The IC50 on GSK-3α/β (Table 4) was more than 10 µM. For the same compound, the IC50 on Casein kinase 1 (CK1δ/ε) (Table 4) is more than 10 µM. Besides, on DYRK1A [2] (Table 4), the IC50 is more than 10000 nM.

In turn, `O=C1NC(=S)S/C1=C\c1cc2ccccc2o1` [Compound 3l, (5Z)-5-(1-Benzofuran-2-ylmethylene)-2-thioxo-1,3-thiazolidin-4-one] gave a melting point of 246 to 250 °C. In addition, the IC50 against CDK5/p25 (Table 4) is more than 10 µM. Further, at Casein kinase 1 (CK1δ/ε) (Table 4), the IC50 was more than 10 µM. On DYRK1A [2] (Table 4), this compound displayed an IC50 of 15000 nM.

As to `O=C1N=C(N2CCOCC2)S/C1=C\c1ccc2c(c1)CCO2` [Compound 5m, (5Z)-5-(2,3-Dihydro-benzofuran-5-ylmethylene)-2-(morpholin-4-yl)-1,3-thiazol-4(5H)-one], the IC50 against CDK5/p25 (Table 5) was more than 10 µM; at GSK-3α/β (Table 5), not below 10 µM; on Casein kinase 1 (CK1δ/ε) (Table 5), more than 10 µM; against DYRK1A [2] (Table 5), 600 nM.

For `O=C1N=C(N2CCSCC2)S/C1=C\c1ccc2c(c1)CCO2` [Compound 5n, (5Z)-5-(2,3-Dihydro-benzofuran-5-ylmethylene)-2-(thiomorpholin-4-yl)-1,3-thiazol-4(5H)-one], the IC50 against CDK5/p25 (Table 5) was more than 10 µM; on GSK-3α/β (Table 5) it was 5.3 µM; at Casein kinase 1 (CK1δ/ε) (Table 5) it was more than 10 µM; at DYRK1A [2] (Table 5), 70 nM.

`O=C1N=C(N2CCCCC2)S/C1=C\c1ccc2c(c1)CCO2` [Compound 5o, (5Z)-5-(2,3-Dihydro-benzofuran-5-ylmethylene)-2-(piperidin-1-yl)-1,3-thiazol-4(5H)-one]: the IC50 is more than 10 µM against CDK5/p25 (Table 5), 4.7 µM at GSK-3α/β (Table 5), not below 10 µM at Casein kinase 1 (CK1δ/ε) (Table 5) and 90 nM against DYRK1A [2] (Table 5).

For `O=C1N=C(N2CCCCC2)S/C1=C\c1ccc2c(c1)OCCO2` [Compound 5p, (5Z)-5-(2,3-Dihydro-1,4-benzodioxin-6-ylmethylene)-2-(piperidin-1-yl)-1,3-thiazol-4(5H)-one], the IC50 against CDK5/p25 (Table 5) is more than 10 µM; on GSK-3α/β (Table 5), more than 10 µM; at Casein kinase 1 (CK1δ/ε) (Table 5), not below 10 µM; against DYRK1A [2] (Table 5) it was 940 nM.

For `O=C1N=C(N2CCSCC2)S/C1=C\c1ccc2c(c1)OCCO2` [Compound 5q, (5Z)-5-(2,3-Dihydro-1,4-benzodioxin-6-ylmethylene)-2-(thiomorpholin-4-yl)-1,3-thiazol-4(5H)-one], the IC50 against CDK5/p25 (Table 5) was more than 10 µM; on GSK-3α/β (Table 5), 3.7 µM; at Casein kinase 1 (CK1δ/ε) (Table 5) it was more than 10 µM; against DYRK1A [2] (Table 5) it was 170 nM.

In the case of `O=C1N=C(Nc2ccccc2)S/C1=C\c1ccc2c(c1)OCO2` [Compound 5r, (5Z)-5-Benzo[1,3]dioxol-5-ylmethylene-2-phenylamino-1,3-thiazol-4(5H)-one], the IC50 is more than 10 µM on CDK5/p25 (Table 5), more than 10 µM on GSK-3α/β (Table 5), more than 10 µM on Casein kinase 1 (CK1δ/ε) (Table 5) and 610 nM on DYRK1A [2] (Table 5).

As to `O=C1N=C(Nc2ccccn2)S/C1=C\c1ccc2c(c1)OCO2` [Compound 5s, (5Z)-5-Benzo[1,3]dioxol-5-ylmethylene-2-(pyridin-2-yl)amino-1,3-thiazol-4(5H)-one], the IC50 was more than 10 µM at CDK5/p25 (Table 5), not above 10 µM at GSK-3α/β (Table 5), more than 10 µM on Casein kinase 1 (CK1δ/ε) (Table 5) and 33 nM against DYRK1A [2] (Table 5).

As to `O=C1N=C(Nc2ccncc2)S/C1=C\c1ccc2c(c1)OCO2` [Compound 5t, (5Z)-5-Benzo[1,3]dioxol-5-ylmethylene-2-(pyridin-4-yl)amino-1,3-thiazol-4(5H)-one], the IC50 on CDK5/p25 (Table 5) is more than 10 µM; at GSK-3α/β (Table 5), more than 10 µM; on Casein kinase 1 (CK1δ/ε) (Table 5), more than 10 µM; against DYRK1A [2] (Table 5), more than 10000 nM.

For `COc1ccc(NC2=NC(=O)/C(=C/c3ccc4c(c3)OCO4)S2)cc1` [Compound 5u, (5Z)-5-Benzo[1,3]dioxol-5-ylmethylene-2-(4-methoxy-phenylamino)-1,3-thiazol-4(5H)-one], the IC50 on CDK5/p25 (Table 5) is more than 10 µM; at GSK-3α/β (Table 5), more than 10 µM; on Casein kinase 1 (CK1δ/ε) (Table 5) it was more than 10 µM; against DYRK1A [2] (Table 5) it was 900 nM.

On to `O=C1N=C(Nc2ccc(Cl)cc2)S/C1=C\c1ccc2c(c1)OCO2` [Compound 5v, (5Z)-5-Benzo[1,3]dioxol-5-ylmethylene-2-(4-chloro-phenylamino)-1,3-thiazol-4(5H)-one], for which the IC50 on CDK5/p25 (Table 5) was more than 10 µM; at GSK-3α/β (Table 5), more than 10 µM; at Casein kinase 1 (CK1δ/ε) (Table 5), more than 10 µM; on DYRK1A [2] (Table 5) it was 9000 nM.

Turning to `O=C1N=C(Nc2ccccc2)S/C1=C\c1ccc2c(c1)CCO2` [Compound 5w, (5Z)-5-(2,3-Dihydro-benzofuran-5-ylmethylene)-2-phenylamino-1,3-thiazol-4(5H)-one], the IC50 against CDK5/p25 (Table 5) was more than 10 µM; at GSK-3α/β (Table 5), more than 10 µM; on Casein kinase 1 (CK1δ/ε) (Table 5), more than 10 µM; against DYRK1A [2] (Table 5), 120 nM.

In the case of `O=C1N=C(Nc2ccccc2)S/C1=C\c1ccc2c(c1)OCCO2` [Compound 5x, (5Z)-5-(2,3-Dihydro-benzo[1,4]dioxin-6-ylmethylene)-2-phenylamino-1,3-thiazol-4(5H)-one], the IC50 on CDK5/p25 (Table 5) is more than 10 µM; at GSK-3α/β (Table 5) it was more than 10 µM; at Casein kinase 1 (CK1δ/ε) (Table 5), more than 10 µM; at DYRK1A [2] (Table 5), 270 nM.

As for `O=C1NC(Nc2ccccc2)=N/C1=C\c1ccc2c(c1)OCO2` [Leucettine L41], in the series on DYRK1A [1] (Figure 1), the IC50 is 40 nM.

Take `Nc1ncc(I)c(-c2c[nH]c3ccccc23)n1` [Meridianine 74]: the IC50 in the series with DYRK1A [1] is 66 nM.

Consider `Nc1nccc(-c2c[nH]c3nccc(O)c23)n1` [Merioline 2], for which the IC50 with DYRK1A [1] is 29 nM.

As to `COC(=N)c1nc2ccc3ncnc(Nc4ccc(Br)cc4F)c3c2s1` [VII], the IC50 in the series on DYRK1A [1] is […].

Turning to `CN(Cc1cccs1)c1ncnc2ccc(-c3ccc4c(c3)OCO4)cc12` [VI], in the series with DYRK1A [1], the IC50 was 14 nM.

For the compound `c1csc(CNc2ncnc3ccc(-c4ccc5c(c4)OCO5)cc23)c1` [V], the IC50 in the series on DYRK1A [1] was 62 nM.

For the compound `COc1cc(C)c(-c2c3c4cc(OC)c(O)cc4oc(=O)c3n3ccc4cc(O)c(OC)cc4c23)cc1O` [XII], in the series with DYRK1A [1], the IC50 is 42 nM.

Consider `O=c1oc2ccc(O)cc2c2c1[nH]c1ccc(O)cc12` [XI], for which the IC50 in the series with DYRK1A [1] was 67 nM.
